In the supplement of paper PMC10307832:

Key:
Test in all cases: relative viability (nuclei count vs DMSO), 5 days (fraction); higher = more cells survive
201T = tested on: 201T
Summary of the method: (§1)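 A single step with final 0.05% Triton X-100, 1% formaldehyde and 1 ug/ml Hoechst fixed the cells and stained nuclei 5 days after treatment. Lung cancer cell lines in 1536-well plates had been treated by pin tool the day after seeding with one drug alone or a fixed anchor-drug dose plus five library-drug doses (not always all listed) in √10 steps, and nuclei were counted on 4× images. Relative viability is the ratio of nuclei in treated wells to nuclei in vehicle wells, taken as the median of duplicate plates.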

BEN = tested on: BEN
Summary of the method: as §1

EKVX = tested on: EKVX
Summary of the method: as §1

EPLC-272H = tested on: EPLC-272H
Summary of the method: as §1

H3255 = tested on: H3255
Summary of the method: as §1

HCC-44 = tested on: HCC-44
Summary of the method: as §1

HCC-827 = tested on: HCC-827
Summary of the method: as §1

LCLC-97TM1 = tested on: LCLC-97TM1
Summary of the method: as §1

LOU-NH91 = tested on: LOU-NH91
Summary of the method: as §1

LU99A = tested on: LU99A
Summary of the method: as §1

NCI-H1437 = tested on: NCI-H1437
Summary of the method: as §1

NCI-H1666 = tested on: NCI-H1666
Summary of the method: as §1

NCI-H1975 = tested on: NCI-H1975
Summary of the method: as §1

NCI-H2085 = tested on: NCI-H2085
Summary of the method: as §1

NCI-H2087 = tested on: NCI-H2087
Summary of the method: as §1

NCI-H2170 = tested on: NCI-H2170
Summary of the method: as §1

NCI-H2342 = tested on: NCI-H2342
Summary of the method: as §1

NCI-H647 = tested on: NCI-H647
Summary of the method: as §1

NCI-H650 = tested on: NCI-H650
Summary of the method: as §1

PC-3 [JPC-3] = tested on: PC-3 [JPC-3]
Summary of the method: as §1

`COc1cc2nccc(Oc3ccc(NC(=O)Nc4cc(C)on4)c(Cl)c3)c2cc1OC` [Tivozanib] + NC(=O)Nc1cc(-c2cccc(F)c2)sc1C(=O)N[C@H]1CCCNC1 [AZD7762] (partner 0.2 µM) gave a relative viability (201T; first compound 0.005 µM) of 0.599, a relative viability (201T; first compound 0.01581 µM) of 0.575 and a relative viability (201T; first compound 0.05 µM) of 0.659. The relative viability (201T; first compound 0.1581 µM) was 0.595, the relative viability (201T; first compound 0.5 µM) was 0.601 and the relative viability (BEN; first compound 0.005 µM) was 0.6. For the same molecule, the relative viability (BEN; first compound 0.01581 µM) was 0.712, the relative viability (BEN; first compound 0.05 µM) was 0.869 and the relative viability (BEN; first compound 0.1581 µM) was 0.375. For the same molecule, the relative viability (BEN; first compound 0.5 µM) was 0.737, the relative viability (EKVX; first compound 0.005 µM) was 0.592 and the relative viability (EKVX; first compound 0.01581 µM) was 0.695. It also gave a relative viability (EKVX; first compound 0.05 µM) of 0.76, a relative viability (EKVX; first compound 0.1581 µM) of 0.69 and a relative viability (EKVX; first compound 0.5 µM) of 0.689. It also gave a relative viability (EPLC-272H; first compound 0.005 µM) of 0.147, a relative viability (EPLC-272H; first compound 0.01581 µM) of 0.159 and a relative viability (EPLC-272H; first compound 0.05 µM) of 0.186. It also gave a relative viability (EPLC-272H; first compound 0.1581 µM) of 0.203, a relative viability (EPLC-272H; first compound 0.5 µM) of 0.184 and a relative viability (H3255; first compound 0.005 µM) of 0.672. The relative viability (H3255; first compound 0.01581 µM) was 0.86, the relative viability (H3255; first compound 0.05 µM) was 0.961 and the relative viability (H3255; first compound 0.1581 µM) was 0.735. It also gave a relative viability (H3255; first compound 0.5 µM) of 0.861, a relative viability (HCC-44; first compound 0.005 µM) of 0.996 and a relative viability (HCC-44; first compound 0.01581 µM) of 0.963. It also gave a relative viability (HCC-44; first compound 0.05 µM) of 1.01, a relative viability (HCC-44; first compound 0.1581 µM) of 1.09 and a relative viability (HCC-44; first compound 0.5 µM) of 1.01. It also gave a relative viability (HCC-827; first compound 0.005 µM) of 0.202, a relative viability (HCC-827; first compound 0.01581 µM) of 0.25 and a relative viability (HCC-827; first compound 0.05 µM) of 0.314. It also gave a relative viability (HCC-827; first compound 0.1581 µM) of 0.185, a relative viability (HCC-827; first compound 0.5 µM) of 0.194 and a relative viability (LCLC-97TM1; first compound 0.005 µM) of 0.128. The relative viability (LCLC-97TM1; first compound 0.01581 µM) was 0.274, the relative viability (LCLC-97TM1; first compound 0.05 µM) was 0.343 and the relative viability (LCLC-97TM1; first compound 0.1581 µM) was 0.208. The relative viability (LCLC-97TM1; first compound 0.5 µM) was 0.262, the relative viability (LOU-NH91; first compound 0.005 µM) was 0.712 and the relative viability (LOU-NH91; first compound 0.01581 µM) was 0.77. For the same molecule, the relative viability (LOU-NH91; first compound 0.05 µM) was 0.753, the relative viability (LOU-NH91; first compound 0.1581 µM) was 0.734 and the relative viability (LOU-NH91; first compound 0.5 µM) was 0.701. It also gave a relative viability (LU99A; first compound 0.005 µM) of 0.337, a relative viability (LU99A; first compound 0.01581 µM) of 0.342 and a relative viability (LU99A; first compound 0.05 µM) of 0.34. It also gave a relative viability (LU99A; first compound 0.1581 µM) of 0.27, a relative viability (LU99A; first compound 0.5 µM) of 0.288 and a relative viability (NCI-H1437; first compound 0.005 µM) of 1.12. The relative viability (NCI-H1437; first compound 0.01581 µM) was 1.16, the relative viability (NCI-H1437; first compound 0.05 µM) was 1.07 and the relative viability (NCI-H1437; first compound 0.1581 µM) was 1.17. The relative viability (NCI-H1437; first compound 0.5 µM) was 1.04, the relative viability (NCI-H1666; first compound 0.005 µM) was 0.784 and the relative viability (NCI-H1666; first compound 0.01581 µM) was 0.761. The relative viability (NCI-H1666; first compound 0.05 µM) was 0.956, the relative viability (NCI-H1666; first compound 0.1581 µM) was 0.82 and the relative viability (NCI-H1666; first compound 0.5 µM) was 0.845. The relative viability (NCI-H1975; first compound 0.005 µM) was 0.594, the relative viability (NCI-H1975; first compound 0.01581 µM) was 0.742 and the relative viability (NCI-H1975; first compound 0.05 µM) was 0.746. It also gave a relative viability (NCI-H1975; first compound 0.1581 µM) of 0.836, a relative viability (NCI-H1975; first compound 0.5 µM) of 0.595 and a relative viability (NCI-H2085; first compound 0.005 µM) of 0.881. For the same molecule, the relative viability (NCI-H2085; first compound 0.01581 µM) was 0.862, the relative viability (NCI-H2085; first compound 0.05 µM) was 1.05 and the relative viability (NCI-H2085; first compound 0.1581 µM) was 0.912. For the same molecule, the relative viability (NCI-H2085; first compound 0.5 µM) was 0.887, the relative viability (NCI-H2087; first compound 0.005 µM) was 1.3 and the relative viability (NCI-H2087; first compound 0.01581 µM) was 1.3. It also gave a relative viability (NCI-H2087; first compound 0.05 µM) of 1.28, a relative viability (NCI-H2087; first compound 0.1581 µM) of 1.55 and a relative viability (NCI-H2087; first compound 0.5 µM) of 1.22. The relative viability (NCI-H2170; first compound 0.005 µM) was 0.689, the relative viability (NCI-H2170; first compound 0.01581 µM) was 0.785 and the relative viability (NCI-H2170; first compound 0.05 µM) was 0.809. It also gave a relative viability (NCI-H2170; first compound 0.5 µM) of 0.856, a relative viability (NCI-H2342; first compound 0.005 µM) of 0.492 and a relative viability (NCI-H2342; first compound 0.01581 µM) of 0.431. It also gave a relative viability (NCI-H2342; first compound 0.05 µM) of 0.609, a relative viability (NCI-H2342; first compound 0.5 µM) of 0.414 and a relative viability (NCI-H647; first compound 0.005 µM) of 0.367. It also gave a relative viability (NCI-H647; first compound 0.01581 µM) of 0.42, a relative viability (NCI-H647; first compound 0.05 µM) of 0.789 and a relative viability (NCI-H647; first compound 0.1581 µM) of 0.377. For the same molecule, the relative viability (NCI-H647; first compound 0.5 µM) was 0.369, the relative viability (NCI-H650; first compound 0.005 µM) was 0.771 and the relative viability (NCI-H650; first compound 0.01581 µM) was 1.08. It also gave a relative viability (NCI-H650; first compound 0.05 µM) of 0.976, a relative viability (NCI-H650; first compound 0.1581 µM) of 0.958 and a relative viability (NCI-H650; first compound 0.5 µM) of 0.683. It also gave a relative viability (PC-3 [JPC-3]; first compound 0.01581 µM) of 0.857, a relative viability (PC-3 [JPC-3]; first compound 0.05 µM) of 0.927 and a relative viability (PC-3 [JPC-3]; first compound 0.1581 µM) of 0.741. For the same molecule, the relative viability (PC-3 [JPC-3]; first compound 0.5 µM) was 0.8.
